Molecules are shown by their SMILES. Some results are limits rather than exact numbers.

3-beta-hydroxysteroid-Delta(8),Delta(7)-isomerase, sequence (Q15125 whole entry): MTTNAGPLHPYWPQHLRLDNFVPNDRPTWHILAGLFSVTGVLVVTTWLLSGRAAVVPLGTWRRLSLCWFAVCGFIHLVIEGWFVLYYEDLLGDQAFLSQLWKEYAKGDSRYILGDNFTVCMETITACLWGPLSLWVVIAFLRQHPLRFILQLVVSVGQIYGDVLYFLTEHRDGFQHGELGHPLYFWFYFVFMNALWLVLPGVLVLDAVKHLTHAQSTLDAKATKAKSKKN

This assay concerns the target 3-beta-hydroxysteroid-Delta(8),Delta(7)-isomerase (Homo sapiens, UniProt Q15125). The experiment in a line: Inhibition of human EBP isolated from HEK293T cells assessed as reduction in dihydrolathosterol-d5 formation using zymosterol-d5 as substrate pre incubated for 30 mins followed by substrate addition and incubated at 37 degC for 4 hrs by LC-APCI MRM MS analysis. It is filed as cell-free, HEK-293T.
One may read the IC50 as the concentration at which inhibition is half-maximal. `O=S(=O)(c1ccc(OC(F)F)cc1)N1[C@@H]2CC[C@H]1C[C@@H](NCC1(O)CCOCC1)C2`: the IC50 was less than 50 nM.
To `O=S(=O)(c1ccc(OC(F)F)cc1)N1C2CCC1CC(NCC1CCOCC1)C2` (stereo unspecified) belongs less than 50 nM; to `O=S(=O)(c1ccc(OC(F)F)cc1)N1C2CCC1CC(NC1CCOCC1)C2` (stereo unspecified), less than 50 nM.
Consider `Cc1cc(S(=O)(=O)N2[C@@H]3CC[C@H]2C[C@@H](CN2CCOCC2)C3)n(C)n1`, for which the IC50 was less than 50 nM.
In the case of `CC1CCN([C@H]2C[C@H]3CC[C@@H](C2)N3S(=O)(=O)c2ccc(OC(F)F)cc2)CC1`, the IC50 is less than 50 nM.
For `CC12CC(NC3CC4CCC(C3)N4S(=O)(=O)c3ccc(OC(F)F)cc3)(CO1)C2` (stereo unspecified), the concentration for half-maximal inhibition (IC50) was less than 50 nM.

These data come from ChEMBL document CHEMBL5370631, “Emopamil-Binding Protein Inhibitors for Treating Multiple Sclerosis” (ACS Med Chem Lett, 2023).
